The nature of series [1]: Experiment 3: permeability of hydrophilic cosurfactant to the gelatin shell, content in soft capsule in course of time. The class given is physicochemical. To be noted: for Change of the content of hydrophilic cosurfactant: solvent:Cremophor RH40 3:7 in soft capsule. From the text:
Propylene glycol which contains --OH group in its molecular structure and therefore has high hygroscopic and hydrophilic properties is distributed in the capsule shell according to the movement of water present in the contents and gelatin capsule during encapsulation and drying procedures and therefore, is permeated to the capsule shell in course of time. According to this, since the constitutional ratio of the contents is greately varied at the early stage, of manufacturing procedures of the capsule preparation, the stability of the preparation cannot be ensured and further the reliable therapeutic effect cannot be obtained. […] Hereinafter, the permeability to the gelatin shell of the hydrophilic cosurfactant used in the soft capsule according to the present invention was determined and compared with the shell permeability of propylene glycol, transcutol, glycofurol or dimethylisosorbide used as the hydrophilic cosurfactant in the soft capsule according to the prior art. The content of each solvent in each soft capsule preparation was analyzed by gas chromatography and HPLC. […] At regular intervals, the constant amount of the sample was taken and then analyzed.
Column: Ultra 2; Column temperature: 23° C.; Detector: FID; Detector temperature: 270° C.; Injection temperature: 275° C.; Carrier gas: He; Injection volume: 5 μl; Internal standard: octyl alcohol
Column: 10% PEG 20M; Column temperature: 160° C.; Detector: FID; Injection temperature: 200° C.; Carrier gas: N2; Injection volume: 1 μl; Internal standard: pentadecanoic acid methyl ester
Column: Ultra 2; Column temperature: 230° C.; Detector: FID; Detector temperature: 270° C.; Injection temperature: 270° C.; Carrier gas: He; Injection volume: 5 μl; Internal standard: pentadecanoic acid methyl ester

The conditions of series [2]: species and route not given; cited from earlier work.
In a further series the test system is rat. The note with it: per oral; cited from earlier work.
The nature of series [3]: Experiment 1: reactivity of hydrophilic cosurfactant with the gelatin shell by thermoanalyzer (DSC/DDSC). The class given is physicochemical. The note with it: soft gelatin capsule filled with solvent, stored at room temperature, 3 months. Here is the method: Test for the reactivity of the hydrophilic cosurfactant according to the present invention with the gelatin shell in comparison to the reactivity of the solvents used in the prior art using a thermoanalyzer: The reactivities of the hydrophilic cosurfactant used according to the present invention and propylene glycol used as the hydrophilic cosurfactant in the prior preparation with the gelatin shell were determined using a thermoanalyzer. Each of the hydrophilic cosurfactants and mineral oil as the control solvent was filled in the soft gelatin capsule. The filled capsule was stored at room temperature. At regular intervals, the capsules were cut open by a sharp open blade, and the contents were removed by washing with ether and then about 20 mg of gelatin shell was accurately weighed and analyzed. The programed heating rate was 10° C./minute under nitrogen purge from 25 °C. to 300° C.

For another series, the system named is mouse. The note with it: intravenous injection; cited from earlier work.

The values that follow come from patent US5980939A, “Cyclosporin-containing pharmaceutical composition” (Chong Kun Dang Corp., priority 1996, dated 1999).

For the compound `CC1COC(=O)O1` (racemic) [Propylene carbonate, (±)-4-methyl-1,3-dioxolan-2-one], in series [1], the “stability of the cosurfactant content in soft capsule (in words)” value is “at least comparable stability to dimethylisosorbide and is more stable than propylene glycol, transcutol and glycofurol”. In addition, the “Change of the content of hydrophilic cosurfactant” value (“Change” below) in series [1] (day 0) is reported as 30.1 wt %; in series [1] (day 5) it was 29.8 wt %; in series [1] (day 15) it was 28.6 wt %; in series [1] (day 30), 28.4 wt %; in series [1] (day 60) it was 28.7 wt %; in series [1] (day 90), 27.4 wt %. Moreover, in series [1] (day 120), the “Change” value came out at 28.0 wt %. Moreover, the LD50 in series [2] is 29000 mg/kg.

In the case of `CO[C@H]1CO[C@H]2[C@@H]1OC[C@H]2OC` [Dimethylisosorbide, 1,4:3,6-dianhydro-2,5-dimethyl-D-glucitol], the “Change” value amounted to 30.0 wt % in series [1] (day 0); 28.2 wt % in series [1] (day 5); 29.1 wt % in series [1] (day 15); 28.7 wt % in series [1] (day 30); 28.0 wt % in series [1] (day 60); 26.6 wt % in series [1] (day 90). Besides, the “Change” value in series [1] (day 120) worked out at 25.8 wt %. For the same compound, the LD50 in the series on rat is 5.63 mL/kg.

On to `CC(O)CO` (stereo not drawn) [Propylene glycol, 1,2-propylene glycol], for which the “Change” value worked out at 29.9 wt % in series [1] (day 0); 21.9 wt % in series [1] (day 5); 22.8 wt % in series [1] (day 15); 21.0 wt % in series [1] (day 30); 22.4 wt % in series [1] (day 60); 21.5 wt % in series [1] (day 90). The “Change” value in series [1] (day 120) is 19.5 wt %. Also, in the series on rat, the LD50 was 21000 to 33700 mg/kg. In addition, the “DSC/DDSC pattern of gelatin shell versus shell of capsule filled with mineral oil” value in series [3] was “shows a new peak”.

`CCOCCOCCO` [Transcutol, diethyleneglycol monoethyl ether]: the “Change” value in series [1] (day 0) is reported as 30.1 wt %; in series [1] (day 5) it was 22.1 wt %; in series [1] (day 15), 23.1 wt %; in series [1] (day 30), 21.9 wt %; in series [1] (day 60), 22.1 wt %; in series [1] (day 90) it was 21.7 wt %. Moreover, the “Change” value in series [1] (day 120) came to 20.3 wt %.

For `CC(C)=O` [acetone], the LD50 with rat is 10.7 mL/kg.

With `CC#N` [acetonitrile], in the series on rat, the LD50 was 3800 mg/kg.

On to `c1ccccc1` [benzene], for which the LD50 in the series with rat is 3.8 mL/kg.

Take `CC(C)O` [isopropanol]: the LD50 with rat is 5800 mg/kg.

“tetrahydrofurfurylalcohol polyethylene glycol [Glycofurol]”: the “Change” value in series [1] (day 0) was found to be 30.0 wt %; in series [1] (day 5), 24.4 wt %; in series [1] (day 15), 21.0 wt %; in series [1] (day 30), 23.5 wt %; in series [1] (day 60) it was 21.0 wt %; in series [1] (day 90), 20.7 wt %. In series [1] (day 120), the “Change” value is 20.4 wt %. Moreover, the LD50 with mouse is 3.5 mL/kg.
